Tests used:
[1] = test system: T-lymphoblastic leukemia cell line CEM; experiment: MTT cytotoxicity assay, CEM; type: cell-based, human; conditions: Homo sapiens, 72 hours (TCS50 in the method)
In short: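 Cells pre-incubated 24 h, then exposed to six 4-fold dilutions (top well concentration typically 266.7 μM) in duplicate for 72 h at 37 °C, 5% CO2. MTT read-out, SDS-solubilized formazan measured at 540 nm. TCS50, the concentration lethal to 50% of tumour cells, derived from dose-response curves.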

normal human lymphocytes = experiment: concanavalin A induced lymphocyte proliferation, [3H]-TdR incorporation; type: cell-based; conditions: Homo sapiens, Lymphocyte, 72 hours, read-out: ED50 (the source's name)
In short: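 Ficoll-isolated human peripheral blood mononuclear cells, stimulated with concanavalin A, exposed to six 4-fold compound dilutions (top well concentration 266.7 μM) for 72 h at 37 °C. Proliferation read as [3H]-TdR incorporation over 6 h by scintillation counting; ED50 taken from dose-response curves relative to control cpm.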

CCCCCCNc1nc(NC(CO)c2ccccc2)c2ncn(C(C)C)c2n1 (centres unmarked) [P23, 2-(hexylamino)-6-(1-phenyl-2-hydroxyethylamino)-9-isopropylpurine]
IC50 [1]: 34 µM
EC50 (normal human lymphocytes): 56 µM
